Results taken from patent US9637520B2, “Template-fixed peptidomimetics with CXCR7 modulating activity” (POLYPHOR AG, priority 2010, dated 2017).
Starred links: 1 amine or outer side, 2 acyl side, 3 side chain; linkers in the order of their positions; H or OH if unused. Non-standard residues stand in square brackets, D forms with d. Residues, ends and D or L forms follow the SMILES beside them. *: point of attachment. dPro(cis-4-NH2) = N[C@H]1CN[C@@H](C(=O)O)C1; X4 = Cn1ccnc1CNCCC[C@H](N[*:1])C(=O)[*:2]; Oic = O=C(O)[C@@H]1C[C@@H]2CCCC[C@@H]2N1; Pro(cis-4-F) = O=C(O)[C@@H]1C[C@H](F)CN1; dPro(3S-OH) = O=C(O)[C@@H]1NCC[C@@H]1O; 2Nal = N[C@@H](Cc1ccc2ccccc2c1)C(=O)O; cisHyp = O=C(O)[C@@H]1C[C@H](O)CN1; Tic = O=C(O)[C@@H]1Cc2ccccc2CN1; Orn = NCCC[C@H](N)C(=O)O; Dab = NCC[C@H](N)C(=O)O; Bn = c1ccc(C*)cc1

Target: T1, CXCR7 (Homo sapiens, UniProt P25106)
T1 construct: host or cells: CHO (PathHunter CHO-CXCR7 β-arrestin cells)
T1 sequence (P25106 whole entry): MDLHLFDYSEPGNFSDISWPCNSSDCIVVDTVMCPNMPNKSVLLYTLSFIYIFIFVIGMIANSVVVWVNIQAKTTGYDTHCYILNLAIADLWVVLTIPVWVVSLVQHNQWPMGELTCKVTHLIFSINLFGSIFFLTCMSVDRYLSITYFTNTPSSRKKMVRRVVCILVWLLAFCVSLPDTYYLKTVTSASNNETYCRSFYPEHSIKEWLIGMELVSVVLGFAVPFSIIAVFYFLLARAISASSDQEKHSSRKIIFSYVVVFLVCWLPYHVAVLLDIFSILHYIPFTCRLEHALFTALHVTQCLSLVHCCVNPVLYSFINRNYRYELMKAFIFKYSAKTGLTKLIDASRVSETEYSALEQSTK
Assay: CXCR7 β-arrestin recruitment assay (PathHunter CHO-CXCR7, DiscoverX), agonistic assay
Type: cell-based
Settings: agonistic assay; CHO CXCR7 β-arrestin cells; 90 min at 37° C.; chemiluminescence; read-out: β-Arrestin EC50
Outline: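 CHO cells co-expressing CXCR7 and β-arrestin (PathHunter), seeded overnight, then exposed to serially diluted compounds at 1% DMSO for 90 min at 37 °C; SDF-1 served as positive agonist control. Enzyme-fragment complementation detection developed 90 min at room temperature, read by chemiluminescence.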

Row | Compound | EC50 [nM]
1 | N=C(N)NCCC[C@@H]1NC(=O)[C@H](Cc2c[nH]c3ccccc23)NC(=O)[C@@H](Cc2ccccc2)NC(=O)[C@H](Cc2c[nH]c3ccccc23)NC(=O)[C@@H]2C[C@H](F)CN2C(=O)[C@H]2CCCN2C1=O [Ex. 43, cyclo(-Trp-^DPhe-Trp-Arg-^DPro-Pro((4S)F)—)] (cyclo([Pro(cis-4-F)]W[dF]WR[dP])) | 119 ± 42.3
2 | NCC[C@@H]1NC(=O)[C@H](Cc2c[nH]c3ccccc23)NC(=O)[C@@H](Cc2ccccc2)NC(=O)[C@H](Cc2c[nH]c3ccccc23)NC(=O)[C@@H]2Cc3ccccc3CN2C(=O)[C@H]2C[C@@H](N)CN2C1=O [compound 30, cyclo(-Trp-^DPhe-Trp-Dab-^DPro((4R)NH2)-Tic-)] (cyclo([Dab][dPro(cis-4-NH2)][Tic]W[dF]W)) | 13.6 ± 5
3 | N=C(N)NCCC[C@@H]1NC(=O)[C@@H]2C[C@H](OCc3ccccc3)CN2C(=O)[C@H]2CCCN2C(=O)[C@H](CCCNC(=N)N)NC(=O)[C@H](Cc2c[nH]c3ccccc23)NC(=O)[C@@H](Cc2ccccc2)NC1=O [Ex. 48, cyclo(-Arg-^DPhe-Trp-Arg-^DPro-(4S)-Hyp(Bn)-)] (cyclo(R[dF]WR[dP][cisHyp](Bn))) | 76.9 ± 24.7
4 | CC[C@H](C)[C@@H]1NC(=O)[C@H]([C@@H](C)O)NC(=O)[C@H]2[C@@H](O)CCN2C(=O)[C@H](Cc2c[nH]c3ccccc23)NC(=O)[C@H](CCCNC(=N)N)NC(=O)[C@@H](CCCNC(=N)N)NC1=O [Ex. 55, cyclo(-Ile-^DArg-Arg-Trp-^DPro((4S)OH)-Thr-)] (cyclo(I[dR]RW[dPro(3S-OH)]T)) | 632 ± 23.3
5 | NCCC[C@@H]1NC(=O)[C@H](Cc2c[nH]c3ccccc23)NC(=O)[C@@H](Cc2ccccc2)NC(=O)[C@H](Cc2c[nH]c3ccccc23)NC(=O)[C@@H]2Cc3ccccc3CN2C(=O)[C@H]2C[C@@H](N)CN2C1=O [Ex. 29, cyclo(-Trp-^DPhe-Trp-Orn-^DPro((4R)NH2)-Tic-)] (cyclo([Orn][dPro(cis-4-NH2)][Tic]W[dF]W)) | 26.1 ± 16.7
6 | N=C(N)NCCC[C@@H]1NC(=O)[C@@H]2C[C@@H]3CCCC[C@@H]3N2C(=O)[C@H]2C[C@@H](N)CN2C(=O)[C@H](CCCNC(=N)N)NC(=O)[C@H](Cc2c[nH]c3ccccc23)NC(=O)[C@@H](Cc2ccccc2)NC1=O [compound 42, cyclo(-Arg-^DPhe-Trp-Arg-^DPro((4R)NH2)-Oic-)] (cyclo([Oic]R[dF]WR[dPro(cis-4-NH2)])) | 20.5 ± 10.9
7 | Cn1ccnc1CNCCC[C@@H]1NC(=O)[C@H](Cc2c[nH]c3ccccc23)NC(=O)[C@@H](Cc2ccccc2)NC(=O)[C@H](Cc2c[nH]c3ccccc23)NC(=O)[C@@H]2Cc3ccccc3CN2C(=O)[C@H]2C[C@@H](N)CN2C1=O [compound 78, cyclo(-Trp-^DPhe-Trp-Orn(Ar7)-^DPro((4R)NH2)-Tic-)] (cyclo([Tic]W[dF]W[X4][dPro(cis-4-NH2)])) | 145 ± 10.9
8 | CC[C@H](C)[C@@H]1NC(=O)[C@H](CO)NC(=O)[C@H]2CCCN2C(=O)[C@H](Cc2c[nH]c3ccccc23)NC(=O)[C@H](CCCNC(=N)N)NC(=O)[C@@H](CCCNC(=N)N)NC1=O [Ex. 22, cyclo(-Ile-^DArg-Arg-Trp-^DPro-Ser-)] (cyclo(I[dR]RW[dP]S)) | 12.8 ± 3.5
9 | CC[C@H](C)[C@@H]1NC(=O)[C@H]([C@@H](C)O)NC(=O)[C@H]2CCCN2C(=O)[C@H](Cc2ccc3ccccc3c2)NC(=O)[C@H](CCCNC(=N)N)NC(=O)[C@@H](CCCNC(=N)N)NC1=O [compound 15, cyclo(-Ile-^DArg-Arg-2Nal-^DPro-Thr-)] (cyclo([2Nal][dP]TI[dR]R)) | 0.4 ± 0.1
